Data: US5767237A, “Peptide derivatives” (Teikoku Hormone Mfg. Co., Ltd., priority 1993, dated 1998)

System: mouse leukemia P388 cells
Test: Assay of antitumor activity: increase in life span of mice implanted with P388 leukemia
Type: in vivo
Conditions: CDF1 mice, P388 cells 10^6 cells/mouse i.p.; compound i.p. on first and fifth day after implantation; observed for 60 days; ILS from median survival days
Experimental: (1) Assay of antitumor activity
0.1 ml (10^6 cells/mouse) portions of mouse leukemia P388 cells were implanted intraperitoneally into 7-week-old CDF1 mice. […] From the results were calculated increases in life span (ILS, %) according to the following equation. In the following equation, T means median survival days of the chemical administration group, and C means median survival days of the control group. [formula]
Antitumor activity is shown as the relative ratio in the case where the ILS of dolastatin 10 is supposed to be 100.

dolastatin 10 was tested. Which “Antitumor activity (relative ratio of ILS, ILS of dolastatin 10 supposed to be 100)” value did it give?
The value was 100.
